Like-named read-outs stand apart in the source and are kept apart here.
Key:
blood eosinophils = test system: blood eosinophils
Method: This was a Phase II, open-label, multicenter study in approximately 30 participants aged≥40 to ≤80 years of age with a diagnosis of COPD and a blood eosinophil count of ≥0.30×10^9/L at screening. Some patients with blood eosinophil counts of 0.25-0.299×10^9/L at screening also were included. Participants were treated with 150 mg dexpramipexole BID. […] Informed consent was obtained from participants before the initiation of any study-specific procedures. This study was conducted at approximately 30 sites in the US.
There were three phases to the study: • Screening Phase (Screening Visit through Baseline) Participants underwent screening to assess whether they satisfy the eligibility criteria. […] After the collection of all Baseline assessments, participants began investigational treatment (dexpramipexole 150 mg), BID for 16 weeks. The Week 16 Visit was the Primary Outcome Visit for the study. • Follow-up Phase (Conclusion of Week 16 assessments through Week 20) During this phase, participants had one final phone visit to collect final safety assessments following cessation of investigational product.
The primary endpoint of this study was geometric mean change in the blood AEC from Baseline to Week 16.
Blood eosinophil counts were obtained at every onsite study visit. Samples were collected between 6 AM and 12 noon to minimize diurnal variation.

[1] = test system: eosinophils in blood and airways; settings: 150 mg BID dexpramipexole dihydrochloride; up to approximately
[2] = Subject 10001-001-0001 (<50% AEC reduction at Week 16), Week 4
[3] = Subject 10001-001-0001 (<50% AEC reduction at Week 16), Week 8
[4] = Subject 10001-001-0001 (<50% AEC reduction at Week 16), Week 12
[5] = Subject 10001-001-0001 (<50% AEC reduction at Week 16), Week 16
[6] = Subject 10001-001-0002 (>=50% AEC reduction at Week 16), Week 4
[7] = Subject 10001-008-0002 (<50% AEC reduction at Week 16), Week 4
[8] = Subject 10001-008-0002 (<50% AEC reduction at Week 16), Week 8
[9] = Subject 10001-008-0002 (<50% AEC reduction at Week 16), Week 12
[10] = Subject 10001-008-0002 (<50% AEC reduction at Week 16), Week 16
[11] = Subject 10001-010-0005 (<50% AEC reduction at Week 16), Week 4
[12] = Subject 10001-010-0005 (<50% AEC reduction at Week 16), Week 8
[13] = Subject 10001-010-0005 (<50% AEC reduction at Week 16), Week 12
[14] = Subject 10001-010-0005 (<50% AEC reduction at Week 16), Week 16
[15] = Subject 10001-022-0001 (>=50% AEC reduction at Week 16), Week 4
[16] = Subject 10001-022-0001 (>=50% AEC reduction at Week 16), Week 8
[17] = Subject 10001-022-0001 (>=50% AEC reduction at Week 16), Week 12
[18] = Subject 10001-022-0001 (>=50% AEC reduction at Week 16), Week 16
[19] = Subject 10001-022-0006 (<50% AEC reduction at Week 16), Week 4
[20] = Subject 10001-022-0006 (<50% AEC reduction at Week 16), Week 12
[21] = Subject 10001-022-0006 (<50% AEC reduction at Week 16), Week 16
[22] = Subject 10001-024-0002 (>=50% AEC reduction at Week 16), Week 4
[23] = Subject 10001-024-0002 (>=50% AEC reduction at Week 16), Week 8
[24] = Subject 10001-024-0002 (>=50% AEC reduction at Week 16), Week 12
[25] = Subject 10001-024-0002 (>=50% AEC reduction at Week 16), Week 16

CCCN[C@@H]1CCc2nc(N)sc2C1 [Dexpramipexole, (6R)-2-amino-4,5,6,7-tetrahydro-6-(propylamino)benzothiazole]
AEC Ratio to Baseline (blood eosinophils; [2]): 0.70 | AEC Result (blood eosinophils; [2]): 290 cells/uL | AEC Ratio to Baseline (blood eosinophils; [3]): 0.56 | AEC Result (blood eosinophils; [3]): 235 cells/uL | AEC Ratio to Baseline (blood eosinophils; [4]): 0.54 | AEC Result (blood eosinophils; [4]): 224 cells/uL | AEC Ratio to Baseline (blood eosinophils; [5]): 0.62 | AEC Result (blood eosinophils; [5]): 260 cells/uL | AEC Ratio to Baseline (blood eosinophils; [6]): 0.80 | AEC Result (blood eosinophils; [6]): 298 cells/uL | AEC Result (blood eosinophils; Subject 10001-001-0002 (>=50% AEC reduction at Week 16), Week 8): 0 cells/uL | AEC Ratio to Baseline (blood eosinophils; Subject 10001-001-0002 (>=50% AEC reduction at Week 16), Week 8, zero value replaced with 5 cells): 0.01(a) | AEC Result (blood eosinophils; Subject 10001-001-0002 (>=50% AEC reduction at Week 16), Week 12): 0 cells/uL | AEC Ratio to Baseline (blood eosinophils; Subject 10001-001-0002 (>=50% AEC reduction at Week 16), Week 12, zero value replaced with 5 cells): 0.01(a) | AEC Result (blood eosinophils; Subject 10001-001-0002 (>=50% AEC reduction at Week 16), Week 16): 0 cells/uL | AEC Ratio to Baseline (blood eosinophils; Subject 10001-001-0002 (>=50% AEC reduction at Week 16), Week 16, zero value replaced with 5 cells): 0.01(a) | AEC Ratio to Baseline (blood eosinophils; [7]): 0.70 | AEC Result (blood eosinophils; [7]): 218 cells/uL | AEC Ratio to Baseline (blood eosinophils; [8]): 1.08 | AEC Result (blood eosinophils; [8]): 336 cells/uL | AEC Ratio to Baseline (blood eosinophils; [9]): 1.90 | AEC Result (blood eosinophils; [9]): 589 cells/uL | AEC Ratio to Baseline (blood eosinophils; [10]): 1.24 | AEC Result (blood eosinophils; [10]): 384 cells/uL | AEC Ratio to Baseline (blood eosinophils; [11]): 0.94 | AEC Result (blood eosinophils; [11]): 388 cells/uL | AEC Ratio to Baseline (blood eosinophils; [12]): 0.96 | AEC Result (blood eosinophils; [12]): 396 cells/uL | AEC Ratio to Baseline (blood eosinophils; [13]): 0.56 | AEC Result (blood eosinophils; [13]): 231 cells/uL | AEC Ratio to Baseline (blood eosinophils; [14]): 0.64 | AEC Result (blood eosinophils; [14]): 266 cells/uL | AEC Ratio to Baseline (blood eosinophils; [15]): 1.51 | AEC Result (blood eosinophils; [15]): 724 cells/uL | AEC Ratio to Baseline (blood eosinophils; [16]): 0.19 | AEC Result (blood eosinophils; [16]): 90 cells/uL | AEC Ratio to Baseline (blood eosinophils; [17]): 0.01 | AEC Result (blood eosinophils; [17]): 6 cells/uL | AEC Ratio to Baseline (blood eosinophils; [18]): 0.01 | AEC Result (blood eosinophils; [18]): 6 cells/uL | AEC Ratio to Baseline (blood eosinophils; [19]): 1.23 | AEC Result (blood eosinophils; [19]): 676 cells/uL | AEC Ratio to Baseline (blood eosinophils; [20]): 1.07 | AEC Result (blood eosinophils; [20]): 589 cells/uL | AEC Ratio to Baseline (blood eosinophils; [21]): 0.62 | AEC Result (blood eosinophils; [21]): 342 cells/uL | AEC Ratio to Baseline (blood eosinophils; [22]): 0.77 | AEC Result (blood eosinophils; [22]): 192 cells/uL | AEC Ratio to Baseline (blood eosinophils; [23]): 0.77 | AEC Result (blood eosinophils; [23]): 192 cells/uL | AEC Ratio to Baseline (blood eosinophils; [24]): 0.04 | AEC Result (blood eosinophils; [24]): 9 cells/uL | AEC Ratio to Baseline (blood eosinophils; [25]): 0.39 | AEC Result (blood eosinophils; [25]): 98 cells/uL | AEC Observed, Geometric Mean ± GSE (blood eosinophils; Week 4): 353.3 ± 1.22 cells/uL | AEC Observed, Max (blood eosinophils; Week 4): 724 cells/uL | AEC Observed, Median (blood eosinophils; Week 4): 298.0 cells/uL | AEC Observed, Min (blood eosinophils; Week 4): 192 cells/uL | AEC Observed, Q1 (blood eosinophils; Week 4): 218 cells/uL | AEC Observed, Q3 (blood eosinophils; Week 4): 676 cells/uL | AEC Ratio to baseline, Geometric Mean ± GSE (blood eosinophils; Week 4): 0.911 ± 1.1189 | AEC Ratio to baseline, Max (blood eosinophils; Week 4): 1.51 | AEC Ratio to baseline, Median (blood eosinophils; Week 4): 0.799 | AEC Ratio to baseline, Min (blood eosinophils; Week 4): 0.70 | AEC Ratio to baseline, Q1 (blood eosinophils; Week 4): 0.70 | AEC Ratio to baseline, Q3 (blood eosinophils; Week 4): 1.23 | AEC Observed, Geometric Mean ± GSE (blood eosinophils; Week 8): 118.0 ± 1.95 cells/uL | AEC Observed, Max (blood eosinophils; Week 8): 396 cells/uL | AEC Observed, Median (blood eosinophils; Week 8): 212.4 cells/uL | AEC Observed, Min (blood eosinophils; Week 8): 5 cells/uL | AEC Observed, Q1 (blood eosinophils; Week 8): 90 cells/uL | AEC Observed, Q3 (blood eosinophils; Week 8): 336 cells/uL | AEC Ratio to baseline, Geometric Mean ± GSE (blood eosinophils; Week 8): 0.323 ± 1.9860 | AEC Ratio to baseline, Max (blood eosinophils; Week 8): 1.08 | AEC Ratio to baseline, Median (blood eosinophils; Week 8): 0.658 | AEC Ratio to baseline, Min (blood eosinophils; Week 8): 0.01 | AEC Ratio to baseline, Q1 (blood eosinophils; Week 8): 0.19 | AEC Ratio to baseline, Q3 (blood eosinophils; Week 8): 0.96 | AEC Observed, Geometric Mean ± GSE (blood eosinophils; Week 12): 64.9 ± 2.30 cells/uL | AEC Observed, Max (blood eosinophils; Week 12): 589 cells/uL | AEC Observed, Median (blood eosinophils; Week 12): 224.0 cells/uL | AEC Observed, Min (blood eosinophils; Week 12): 5 cells/uL | AEC Observed, Q1 (blood eosinophils; Week 12): 6 cells/uL | AEC Observed, Q3 (blood eosinophils; Week 12): 589 cells/uL | AEC Ratio to baseline, Geometric Mean ± GSE (blood eosinophils; Week 12): 0.167 ± 2.2497 | AEC Ratio to baseline, Max (blood eosinophils; Week 12): 1.90 | AEC Ratio to baseline, Median (blood eosinophils; Week 12): 0.538 | AEC Ratio to baseline, Min (blood eosinophils; Week 12): 0.01 | AEC Ratio to baseline, Q1 (blood eosinophils; Week 12): 0.01 | AEC Ratio to baseline, Q3 (blood eosinophils; Week 12): 1.07 | AEC Observed, Geometric Mean ± GSE (blood eosinophils; Week 16): 82.8 ± 2.06 cells/uL | AEC Observed, Max (blood eosinophils; Week 16): 384 cells/uL | AEC Observed, Median (blood eosinophils; Week 16): 260.0 cells/uL | AEC Observed, Min (blood eosinophils; Week 16): 5 cells/uL | AEC Observed, Q1 (blood eosinophils; Week 16): 6 cells/uL | AEC Observed, Q3 (blood eosinophils; Week 16): 342 cells/uL | AEC Ratio to baseline, Geometric Mean ± GSE (blood eosinophils; Week 16): 0.213 ± 2.0849 | AEC Ratio to baseline, Max (blood eosinophils; Week 16): 1.24 | AEC Ratio to baseline, Median (blood eosinophils; Week 16): 0.620 | AEC Ratio to baseline, Min (blood eosinophils; Week 16): 0.01 | AEC Ratio to baseline, Q1 (blood eosinophils; Week 16): 0.01 | AEC Ratio to baseline, Q3 (blood eosinophils; Week 16): 0.64 | AEC, average, percent of the baseline value (blood eosinophils; Week 16): 21.3 % of the baseline value | subjects classified as AECR≥0.5 (reduction in AEC of ≥50% from baseline at week 16) (blood eosinophils; Week 16): 3 of the 7 subjects | reductions of eosinophils in blood and airways [1]: ≤ 80%

Source: patent publication US20250352520A1, “USE OF DEXPRAMIPEXOLE FOR THE TREATMENT OF EOSINOPHILIC COPD” (Areteia Therapeutics, Inc., priority 2024, published 2025)
